Species: Rattus norvegicus
Test: DrugMatrix - Regimen: Daily Repeat
Type: toxicity, organism-based, Sprague-Dawley
Design: regimen Daily Repeat, gender Male, age 6-8 weeks
Conditions: in vivo, po, route oral GAVAGE, vehicle .5 % CMC; for ABSOLUTE BASOPHIL / ABSOLUTE EOSINOPHIL / ABSOLUTE LYMPHOCYTE / ABSOLUTE MONOCYTE / ABSOLUTE SEGMENTED NEUTROPHIL / BASOPHIL / EOSINOPHIL / ERYTHROCYTE COUNT / HEMATOCRIT / HEMOGLOBIN / LEUKOCYTE COUNT / LYMPHOCYTE / MEAN CORPUSCULAR HEMOGLOBIN / MEAN CORPUSCULAR HEMOGLOBIN CONCENTRATION / MEAN CORPUSCULAR VOLUME / MONOCYTE / NEUTROPHIL / NUCLEATED RED BLOOD CELLS / PLATELET COUNT: tissue Blood; for ALANINE AMINOTRANSFERASE / ALBUMIN / ALKALINE PHOSPHATASE / ASPARTATE AMINOTRANSFERASE / BLOOD UREA NITROGEN / CARBON DIOXIDE / CHLORIDE / CHOLESTEROL / CREATINE PHOSPHOKINASE / CREATININE / GLUCOSE / LACTATE DEHYDROGENASE / LIPASE / PHOSPHORUS / POTASSIUM / SODIUM / TOTAL BILIRUBIN / TOTAL PROTEIN / URIC ACID: tissue Plasma
[1] = 0 mg/kg, 72 h, dose level Control, time 3 day
[2] = 0 mg/kg, 120 h, dose level Control, time 5 day
[3] = 17 mg/kg, 72 h, dose level Low, time 3 day

Compound: CN1CCN(CCCN2c3ccccc3Sc3ccc(Cl)cc32)CC1 [PROCHLORPERAZINE]
- ABSOLUTE BASOPHIL [1]: 0 CELLS/uL
- ABSOLUTE EOSINOPHIL [1]: 0 CELLS/uL
- ABSOLUTE LYMPHOCYTE [1]: 10913.67 CELLS/uL
- ABSOLUTE MONOCYTE [1]: 85.33 CELLS/uL
- ABSOLUTE SEGMENTED NEUTROPHIL [1]: 1401 CELLS/uL
- BASOPHIL [1]: 0%
- EOSINOPHIL [1]: 0%
- ERYTHROCYTE COUNT [1]: 5.57 x10E6/uL
- HEMATOCRIT [1]: 35.58%
- HEMOGLOBIN [1]: 13.8 G/DL
- LEUKOCYTE COUNT [1]: 12.4 x10E3/uL
- LYMPHOCYTE [1]: 88%
- MEAN CORPUSCULAR HEMOGLOBIN [1]: 24.78 pg
- MEAN CORPUSCULAR HEMOGLOBIN CONCENTRATION [1]: 38.82 G/DL
- MEAN CORPUSCULAR VOLUME [1]: 63.88 fL
- MONOCYTE [1]: 0.67%
- NEUTROPHIL [1]: 11.33%
- NUCLEATED RED BLOOD CELLS [1]: 0 /100WBC
- PLATELET COUNT [1]: 1162.33 x10E3/uL
- ALANINE AMINOTRANSFERASE [1]: 53 u/L
- ALBUMIN [1]: 4.17 G/DL
- ALKALINE PHOSPHATASE [1]: 374.5 u/L
- ASPARTATE AMINOTRANSFERASE [1]: 89.5 u/L
- BLOOD UREA NITROGEN [1]: 16.33 mg/dL
- CARBON DIOXIDE [1]: 29.17 mmol/L
- CHLORIDE [1]: 97.67 MEQ/L
- CHOLESTEROL [1]: 77 mg/dL
- CREATINE PHOSPHOKINASE [1]: 464.83 u/L
- CREATININE [1]: 0.14 mg/dL
- GLUCOSE [1]: 164 mg/dL
- LACTATE DEHYDROGENASE [1]: 155.5 u/L
- LIPASE [1]: 9.17 u/L
- PHOSPHORUS [1]: 12.4 mg/dL
- POTASSIUM [1]: 6.91 MEQ/L
- SODIUM [1]: 141.47 MEQ/L
- TOTAL BILIRUBIN [1]: 0.2 mg/dL
- TOTAL PROTEIN [1]: 5.95 G/DL
- URIC ACID [1]: 1.72 mg/dL
- ABSOLUTE BASOPHIL [2]: 0 CELLS/uL
- ABSOLUTE EOSINOPHIL [2]: 20.5 CELLS/uL
- ABSOLUTE LYMPHOCYTE [2]: 13871.67 CELLS/uL
- ABSOLUTE MONOCYTE [2]: 60.5 CELLS/uL
- ABSOLUTE SEGMENTED NEUTROPHIL [2]: 980.67 CELLS/uL
- BASOPHIL [2]: 0%
- EOSINOPHIL [2]: 0.17%
- ERYTHROCYTE COUNT [2]: 5.65 x10E6/uL
- HEMATOCRIT [2]: 35.63%
- HEMOGLOBIN [2]: 14.08 G/DL
- LEUKOCYTE COUNT [2]: 14.93 x10E3/uL
- LYMPHOCYTE [2]: 92.83%
- MEAN CORPUSCULAR HEMOGLOBIN [2]: 24.97 pg
- MEAN CORPUSCULAR HEMOGLOBIN CONCENTRATION [2]: 39.55 G/DL
- MEAN CORPUSCULAR VOLUME [2]: 63.13 fL
- MONOCYTE [2]: 0.33%
- NEUTROPHIL [2]: 6.67%
- NUCLEATED RED BLOOD CELLS [2]: 0 /100WBC
- PLATELET COUNT [2]: 1248.17 x10E3/uL
- ALANINE AMINOTRANSFERASE [2]: 45.17 u/L
- ALBUMIN [2]: 4.27 G/DL
- ALKALINE PHOSPHATASE [2]: 405.67 u/L
- ASPARTATE AMINOTRANSFERASE [2]: 74.17 u/L
- BLOOD UREA NITROGEN [2]: 15.5 mg/dL
- CARBON DIOXIDE [2]: 30.17 mmol/L
- CHLORIDE [2]: 100.67 MEQ/L
- CHOLESTEROL [2]: 57 mg/dL
- CREATINE PHOSPHOKINASE [2]: 239.5 u/L
- CREATININE [2]: 0.17 mg/dL
- GLUCOSE [2]: 165.67 mg/dL
- LACTATE DEHYDROGENASE [2]: 90.5 u/L
- LIPASE [2]: 8.83 u/L
- PHOSPHORUS [2]: 12.32 mg/dL
- POTASSIUM [2]: 7.03 MEQ/L
- SODIUM [2]: 142.65 MEQ/L
- TOTAL BILIRUBIN [2]: 0.18 mg/dL
- TOTAL PROTEIN [2]: 6.03 G/DL
- URIC ACID [2]: 1.98 mg/dL
- ABSOLUTE BASOPHIL [3]: 0 CELLS/uL
- ABSOLUTE EOSINOPHIL [3]: 0 CELLS/uL
- ABSOLUTE LYMPHOCYTE [3]: 10730.67 CELLS/uL
- ABSOLUTE MONOCYTE [3]: 90 CELLS/uL
- ABSOLUTE SEGMENTED NEUTROPHIL [3]: 1446 CELLS/uL
- BASOPHIL [3]: 0%
- EOSINOPHIL [3]: 0%
- ERYTHROCYTE COUNT [3]: 5.49 x10E6/uL
- HEMATOCRIT [3]: 34.9%
- HEMOGLOBIN [3]: 13.83 G/DL
- LEUKOCYTE COUNT [3]: 12.27 x10E3/uL
- LYMPHOCYTE [3]: 87.67%
- MEAN CORPUSCULAR HEMOGLOBIN [3]: 25.3 pg
- MEAN CORPUSCULAR HEMOGLOBIN CONCENTRATION [3]: 39.67 G/DL
- MEAN CORPUSCULAR VOLUME [3]: 63.77 fL
- MONOCYTE [3]: 0.67%
- NEUTROPHIL [3]: 11.67%
- NUCLEATED RED BLOOD CELLS [3]: 0.33 /100WBC
- PLATELET COUNT [3]: 1239 x10E3/uL
- ALANINE AMINOTRANSFERASE [3]: 45 u/L
- ALBUMIN [3]: 4.17 G/DL
- ALKALINE PHOSPHATASE [3]: 413.67 u/L
- ASPARTATE AMINOTRANSFERASE [3]: 85.33 u/L
- BLOOD UREA NITROGEN [3]: 15.33 mg/dL
- CARBON DIOXIDE [3]: 26 mmol/L
- CHLORIDE [3]: 99.33 MEQ/L
- CHOLESTEROL [3]: 67.67 mg/dL
- CREATINE PHOSPHOKINASE [3]: 343 u/L
- CREATININE [3]: 0.13 mg/dL
- GLUCOSE [3]: 151 mg/dL
- LACTATE DEHYDROGENASE [3]: 394.67 u/L
- LIPASE [3]: 9.67 u/L
- PHOSPHORUS [3]: 14.23 mg/dL
- POTASSIUM [3]: 6.98 MEQ/L
- SODIUM [3]: 143.17 MEQ/L
- TOTAL BILIRUBIN [3]: 0.2 mg/dL
- TOTAL PROTEIN [3]: 5.9 G/DL
- URIC ACID [3]: 1.5 mg/dL
